Reference: patent publication US20080275076A1, “Pharmaceutical Compositions Comprising Sirolimus and/or an Analogue Thereof” (priority 2005, published 2008)
Like-named read-outs stand apart in the source and are kept apart here.

Experiments:
[1] = Solubility of sirolimus in various vehicles at 70° C. (visual inspection); format: physicochemical
Description: In the following table is given the solubility of sirolimus in various vehicles (please note that the solubility is determined by visual inspection): […]

[2] = cited from earlier work

% Sirolimus dissolved 70° C. ([1]; vehicle Gelucire 44/14): 2.5%
% Sirolimus dissolved 70° C. ([1]; vehicle Monomuls 90 35): 2.2%
% Sirolimus dissolved 70° C. ([1]; vehicle Monomuls 90L12): 3.9%
% Sirolimus dissolved 70° C. ([1]; vehicle Monomuls 90 L12/Rylo MD50 (10:90)): 2.5%
% Sirolimus dissolved 70° C. ([1]; vehicle PEG 6000): 1.5%
% Sirolimus dissolved 70° C. ([1]; vehicle PEG 6000/Poloxamer 188 (70:30)): 2.4%
% Sirolimus dissolved 70° C. ([1]; vehicle Poloxamer 188): 1.0%
% Sirolimus dissolved 70° C. ([1]; vehicle Rylo MD50): 1.5%
Compound: CO[C@H]1C[C@@H]2CC[C@@H](C)[C@@](O)(O2)C(=O)C(=O)N2CCCC[C@H]2C(=O)O[C@H]([C@H](C)C[C@@H]2CC[C@@H](O)[C@H](OC)C2)CC(=O)[C@H](C)/C=C(\C)[C@@H](O)[C@@H](OC)C(=O)[C@H](C)C[C@H](C)/C=C/C=C/C=C/1C [Sirolimus]
mean time-to-peak concentration (tmax) ([2]; multiple oral doses in renal transplant recipients): approximately 2 hours
mean time-to-peak concentration (tmax) ([2]; oral, single dose in healthy subjects): approximately 1 hour
